Source: US8115197B2, “Organic semiconductor material, organic semiconductor thin film and organic semiconductor device” (Sony Corporation, priority 2005, dated 2012)

Assay: dissolution into hexane solution at room temperature
Assay type: physicochemical
Procedure: Also, experiments were carried out in which the polyacene derivative of example 1, the polyacene derivative of example 2, the polyacene derivative of example 3 and the polyacene derivative of example 4 were respectively dissolved into hexane solution at room temperature. […] Also, the polyacene derivative of the inventive example 4 of which number of the substituents is less than that of the polyacene derivative of example 2 by four was dissolved into the hexane solution.

| solubility in hexane solution | Compound |
| --- | --- |
| dissolved | CCCc1c(C(=O)OC)c(C(=O)OC)c(CCC)c2cc3c(CCC)c4cc5c(CC)c(CC)c(CC)c(CC)c5cc4c(CCC)c3cc12 [example 3, 2,3-bis methoxycarbonyl-8,9,10,11-tetra ethyl-1,4,6,13-tetra propyl pentacene] |
| hardly dissolved | CCc1c(CC)c(CC)c2cc3c(CC)c4cc5c(CC)c(C(=O)OC)c(C(=O)OC)c(CC)c5cc4c(CC)c3cc2c1CC [example 2, 2,3-bis methoxycarbonyl-1,4,6,8,9,10,11 13-octaethyl pentacene] |
| dissolved | CCCCc1c(C(=O)OC)c(C(=O)OC)c(CCCC)c2cc3c(CCCC)c4cc5c(CC)c(CC)c(CC)c(CC)c5cc4c(CCCC)c3cc12 [example 1, 2,3-bis methoxycarbonyl-1,4,6,13-tetrabutyl-8,9,10,11-tetraethyl pentacene] |
| dissolved | CCCCc1c(C(=O)OC)c(C(=O)OC)c(CCCC)c2cc3c(CCCC)c4cc5ccccc5cc4c(CCCC)c3cc12 [example 4, 2,3-bis methoxycarbonyl-1,4,6,13-tetrabuyl pentacene] |
